# Test results from US9938301B2, “Dihydropyrimido fused ring derivative as HBV inhibitor” (QILU PHARMACEUTICAL CO., LTD., priority 2014, dated 2018).
# Where two headings read alike, the source gives them in different places.
# System: HBV DNA in HepG2.2.15 cells
# Experiment: HBV in vitro dot-blot hybridization test
# Type: cell-based, Hepatitis B virus
# Protocol: • 1. Purpose of the test: • The content of HBV DNA in HepG2.2.15 cells was detected by dot-blot hybridization test to evaluate an inhibitory action of the compound on HBV with an EC50 value as an indicator. • 2. Experimental materials: • 2.1 Cell lines: HepG2.2.15 Cells • HepG2.2.15 cell culture media (DMEM/F12, Invitrogen-11330057; 10% serum Invitrogen-10099141; 100 units/mL Penicillin and 10 μg/mL Streptomycin, Invitrogen-15140122; 1% non-essential amino acid, Invitrogen-11140076; 2 mM L-GLUTAMINE, Invitrogen-25030081; 300 µg/ml Geneticin, Invitrogen-10131027 • 2.2 Reagents: • Trypsin (I Invitrogen-25300062) • DPBS (Hyclone-SH30028.01B) • DMSO (Sigma-D2650-100ML) • 96-well cell-culture plate (Corning-3599) • CO2 incubator (HERA-CELL-240) • 20×SSC (Bio-serve Co. Ltd) • Tris-HCl (Aldirch-154563-1KG) • NaOH (Sinopharm 10019718) • NaCl (Sinopharm 10019308) • Hybridization solution (Major BioTech Co. Ltd, IMMUNE GOLD-HYB-500) • DIG Wash and Block Buffer set (Roche-11585762001) • Anti-digoxigenin-AP, Fab fragments from sheep (Roche-11093274910) • 2.3 Materials and Instruments: • Positively-Charged Nylon Membrane (GE-RPN2250B) • Transfer Membrane Instrument (Bio-Rad, 170-6545) • Hybridization Oven (HL-2000 Hybrilinker) • 3. Testing steps and Methods: • 3.1 HepG2.2.15 cells (4×10^4 cells/well) were planted into a 96-well plate, and at 37° C., 5% CO2 cultured overnight. • 3.2 On Day 2, the compounds were diluted in totally 6 concentrations with a dilution gradient of five times. The compounds at different concentrations were added into the culture wells in duplicate. The final concentration of DMSO in the culture media was 1%. 1 μM GLS4 was used as 100% inhibition control; 1% DMSO as 0% inhibition control. • 3.3 On Day 5, replacing with the fresh culture media containing the compound was performed. • 3.4 On Day 8 and Day 9, the culture media in the culture wells was removed, and the cells were harvested for dot-blot hybridization. • The lysate was added into a culture well, and at 37° C. incubating for half an hour to disintegrate cells; the supernatant was obtained by centrifugation and transferred into a new microplate; a denaturation solution was added, after sufficient mixing the denatured sample was transferred and imprinted onto a Nylon membrane, the nucleic acid was fixed onto the membrane by UV cross-linking. • Pre-hybridization: the membrane was incubated at 60° C. in a hybridization solution for 1 hour. • Hybridization: heating the denatured digoxin-labelled HBV DNA probe and incubating at 60° C. overnight. • Membrane Washing: performing high strigency washing twice, low strigency washing for 3 times. • Blocking: incubating the membrane at room temperature in a blocking solution for 30-60 minutes. • Hybridization: diluting the Antibody Solution with the blocking solution, in which the membrane was placed and incubated at room temperature for 30-60 minutes. • Developing: washing the membrane in a Detection Buffer for 5 minutes, followed by adding a developing solution, pressing and exposing. • The photos was saved in tiff format, and a gray value of the dot was quantified with quantity one software. • 3.5 Data Analysis: • 3.5.1 The inhibition percentage was calculated: % Inh.=[1−(sample dot gray value−1 μM GLS4 dot gray value 1)/(DMSO control dot gray value−1 μM GLS4 dot gray value 1)]×100. • 3.5.2 Calculating EC50: the concentration of the compound for 50% inhibition of HBV (EC50) was calculated by using GraphPad Prism Software. • 4.
# [1] = Hepatitis B virus, HepG2.2.15, dot-blot hybridization assay, read-out: Concentration for 50% inhibition of HBV (EC50)value
# [2] = Hepatitis B virus, HepG2.2.15, summary list of target compounds, Examples 1-165 (same as Table 2), read-out: BIOACTIVITY (inhibitory actions on HBV DNA, EC50)
# [3] = summary list of target compounds, Examples 1-165 (same as Table 2), read-out: BIOACTIVITY (inhibitory actions on HBV DNA, EC50)
SMILES,EC50 [1] [nM],EC50 [2] [nM],EC50 [3] [nM],"EC50 (dot-blot hybridization assay, read-out: Concentration for 50% inhibition of HBV (EC50)value) [nM]"
CCOC(=O)C1=C2C[C@H](C#N)CN2C(c2nccs2)=N[C@H]1c1ccc(F)cc1Cl [Example 24],500 to 1000,500 to 1000,,
CCOC(=O)C1=C2CNC(=O)CN2C(c2nccs2)=NC1c1ccc(F)cc1Br (racemic) [Example 104],1000 to 5000,1000 to 5000,,
CCOC(=O)CN(C)C[C@H]1CC2=C(C(=O)OCC)[C@H](c3ccc(F)cc3Br)N=C(c3nccs3)N2C1 [Example 20],1000 to 5000,1000 to 5000,,
CCOC(=O)C1=C2C[C@H](NC(=O)C(F)F)CN2C(c2nccs2)=N[C@H]1c1ccc(F)cc1Cl [Example 133],100 to 500,100 to 500,,
CCOC(=O)C1=C2C[C@H](NS(C)(=O)=O)CN2C(c2nccs2)=N[C@H]1c1ccc(Cl)cc1Cl [Example 151],< 100,< 100,,
CCOC(=O)C1=C2C[C@@H](C(N)=O)CN2C(c2nccs2)=NC1c1ccc(F)cc1Br (mixture of isomers) [Example 29],,,100 to 500,
CCOC(=O)C1=C2C[C@@H](C#N)CN2C(c2nccs2)=N[C@H]1c1ccc(F)cc1Cl [Example 25],1000 to 5000,1000 to 5000,,
CCOC(=O)C1=C2CCCN2C(c2nccs2)=NC1c1ccc(F)cc1Br (racemic) [Example 4],100 to 500,100 to 500,,
COC(=O)C1=C2C[C@H](NS(N)(=O)=O)CN2C(c2nccs2)=N[C@H]1c1ccc(F)cc1Cl [Example 159],< 100,< 100,,
CCOC(=O)C1=C2C[C@@H](NC(=O)OC(C)(C)C)CN2C(c2nccs2)=N[C@H]1c1ccc(F)cc1Br [Example 39],< 100,< 100,,
CCOC(=O)C1=C2CCCN2C(c2nccs2)=NC1c1ccc(F)cc1 (racemic) [Example 73],1000 to 5000,1000 to 5000,,
CCOC(=O)C1=C2C[C@H](NS(=O)(=O)C3COC3)CN2C(c2nccs2)=N[C@H]1c1ccc(F)cc1Cl [Example 144],< 100,< 100,,
CCOC(=O)C1=C2C[C@H](NS(=O)(=O)C(F)(F)F)CN2C(c2nccs2)=N[C@H]1c1ccc(F)cc1Br [Example 64],100 to 500,100 to 500,,
CCOC(=O)C1=C2CCN2C(c2nccs2)=NC1c1ccc(F)cc1Br (racemic) [Example 112],1000 to 5000,1000 to 5000,,
CCOC(=O)C1=C2C[C@H](CO)CN2C(c2nccs2)=N[C@H]1c1ccc(F)cc1Br [Example 7],100 to 500,100 to 500,,
CCOC(=O)C1=C2C[C@H](N3CCCC3C(=O)OC)CN2C(c2nccs2)=N[C@H]1c1ccc(F)cc1Cl (stereo partly drawn) [Example 131],1000 to 5000,1000 to 5000,,
CCOC(=O)C1=C2CCC(=O)N2C(c2nccs2)=NC1c1ccc(F)cc1Br (racemic) [Example 68],1000 to 5000,1000 to 5000,,
CCOC(=O)C1=C2C[C@@H](N(C)C)CN2C(c2nccs2)=N[C@H]1c1ccc(F)cc1Br [Example 37],1000 to 5000,1000 to 5000,,
CCOC(=O)CN(C)C[C@@H]1CC2=C(C(=O)OCC)[C@H](c3ccc(F)cc3Br)N=C(c3nccs3)N2C1 [Example 19],1000 to 5000,1000 to 5000,,
COC(=O)C1=C2C[C@H](NS(=O)(=O)C(F)(F)F)CN2C(c2nccs2)=N[C@H]1c1ccc(F)cc1Cl [Example 155],< 100,< 100,,
CCOC(=O)C1=C2CN(C(=O)NC)CCN2C(c2nccs2)=N[C@H]1c1ccc(F)cc1Br [Example 88],500 to 1000,500 to 1000,,
CCOC(=O)C1=C2C[C@@H](CN3CCOCC3)CN2C(c2nccs2)=N[C@H]1c1ccc(F)cc1Br [Example 16],1000 to 5000,1000 to 5000,,

SMILES,EC50 [1] [nM],EC50 [2] [nM],EC50 [3] [nM],"EC50 (dot-blot hybridization assay, read-out: Concentration for 50% inhibition of HBV (EC50)value) [nM]"
COC(=O)N[C@H]1CC2=C(C(=O)OC)[C@H](c3ccc(F)cc3Cl)N=C(c3nccs3)N2C1 [Example 163],< 100,< 100,,
CCOC(=O)C1=C2CCCN2C(c2nc(C)cs2)=NC1c1ccc(F)cc1Cl (racemic) [Example 79],1000 to 5000,1000 to 5000,,
CCOC(=O)C1=C2CC(NC(=O)OC(C)C)CN2C(c2nccs2)=N[C@H]1c1ccc(F)cc1Br (stereo partly drawn) [Example 46],100 to 500,100 to 500,,
CCOC(=O)C1=C2CCOC(=O)N2C(c2nccs2)=NC1c1ccc(F)cc1Br (racemic) [Example 107],100 to 500,100 to 500,,
CCOC(=O)C1=C2CN(C(=O)CN)CCN2C(c2nccs2)=N[C@H]1c1ccc(F)cc1Br [Example 89],1000 to 5000,1000 to 5000,,
CNS(=O)(=O)N[C@H]1CC2=C(C(=O)OC)[C@H](c3ccc(F)cc3Cl)N=C(c3nccs3)N2C1 [Example 160],< 100,< 100,,
CCOC(=O)C1=C2C[C@H](NS(C)(=O)=O)CN2C(c2nccs2)=N[C@H]1c1ccc(F)cc1 [Example 145],500 to 1000,500 to 1000,,
CCOC(=O)C1=C2C[C@@H](c3nnn[nH]3)CN2C(c2nccs2)=N[C@H]1c1ccc(F)cc1Br [Example 33],1000 to 5000,1000 to 5000,,
CCOC(=O)C1=C2CCOC(=O)N2C(c2nccs2)=NC1c1ccc(F)cc1Cl (racemic) [Example 111],1000 to 5000,1000 to 5000,,
CCOC(=O)C1=C2C[C@H](NS(=O)(=O)CC(=O)O)CN2C(c2nccs2)=N[C@H]1c1ccc(F)cc1Cl [Example 143],100 to 500,100 to 500,,
COCC1CC2=C(C(=O)OC)C(c3ccc(F)cc3Br)N=C(c3nccs3)N2C1 (racemic) [Example 10],1000 to 5000,1000 to 5000,,
CCOC(=O)C1=C2CN(C(=O)C3(C)COC3)CCN2C(c2nccs2)=N[C@H]1c1ccc(F)cc1Br [Example 90],100 to 500,100 to 500,,
CCOC(=O)C1=C2C[C@@H](CC#N)CN2C(c2nccs2)=NC1c1ccc(F)cc1Br (mixture of isomers) [Example 11],,,1000 to 5000,1000 to 5000
CCOC(=O)C1=C2CCCN2C(c2nccs2)=NC1(C)c1ccc(F)cc1 (racemic) [Example 75],1000 to 5000,1000 to 5000,,
CCOC(=O)C1=C2CN(C)C(=O)CN2C(c2nccs2)=NC1c1ccc(F)cc1Br (racemic) [Example 105],500 to 1000,500 to 1000,,
CCOC(=O)C1=C2CN(C3COC3)CCN2C(c2nccs2)=N[C@H]1c1ccc(F)cc1Br [Example 102],500 to 1000,500 to 1000,,
COCOC(=O)C1=C2CCCN2C(c2nccs2)=NC1c1ccc(F)cc1Br (racemic) [Example 80],1000 to 5000,1000 to 5000,,
CCOC(=O)C1=C2CN(Cc3cc(C)on3)CCN2C(c2nccs2)=N[C@H]1c1ccc(F)cc1Br [Example 94],1000 to 5000,1000 to 5000,,
CCOC(=O)C1=C2CC(NC(=O)OC(C)C)CN2C(c2nccs2)=N[C@H]1c1ccc(F)cc1Br (mixture of isomers) [Example 45],< 100,< 100,,
CCOC(=O)C1=C2CNCCN2C(c2nccs2)=NC1c1ccc(F)cc1Br (racemic) [Example 83],1000 to 5000,1000 to 5000,,
CCOC(=O)C1=C2CCCN2C(c2nccs2)=NC1c1cc(Cl)sc1Cl (racemic) [Example 74],1000 to 5000,1000 to 5000,,
CCOC(=O)C1=C2CN(C)S(=O)(=O)CN2C(c2nccs2)=N[C@H]1c1ccc(F)cc1Br [Example 136],500 to 1000,500 to 1000,,
